Data on 2 compounds can be found in US20150283147A1, “TREATING POLYCYSTIC KIDNEY DISEASE WITH HSP90 INHIBITORY COMPOUNDS” (SYNTA PHARMACEUTICALS CORP., priority 2012, published 2015).

“Also recorded” adds a separate entry of the source.

One assay deals with Her2. The assay can be described thus: Degradation of Her2 in BT-474 cells (Method 1, Western blot). It is filed as cell-based, Human. Particulars: 0.5 μM, overnight. The procedure: Human high-Her2 breast carcinoma BT474 (HTB-20), SK-BR-3 (HTB-30) and MCF-7 breast carcinoma (HTB-22) from American Type Culture Collection, VA, USA were grown in Dulbecco's modified Eagle's medium with 4 mM L-glutamine and antibiotics (100 IU/ml penicillin and 100 ug/ml streptomycine;GibcoBRL). To obtain exponential cell growth, cells were trypsinized, counted and seeded at a cell density of 0.5×10^6 cells/ml regularly, every 3 days. All experiments were performed on day 1 after cell passage.
BT-474 cells are treated with 0.5 μM, 2 μM, or 5 μM of 17AAG (a positive control) or 0.5 μM, 2 μM, or 5 μM of a compound of the invention overnight in DMEM medium. After treatment, each cytoplasmic sample is prepared from 1×10^6 cells by incubation of cell lysis buffer (#9803, cell Signaling Technology) on ice for 10 minutes. The resulting supernatant used as the cytosol fractions is dissolved with sample buffer for SDS-PAGE and run on a SDS-PAGE gel, blotted onto a nitrocellulose membrane by using semi-dry transfer. Non-specific binding to nitrocellulose is blocked with 5% skim milk in TBS with 0.5% Tween at room temperature for 1 hour, then probed with anti-Her2/ErB2 mAb (rabbit IgG, #2242, Cell Signaling) and anti-Tubulin (T9026, Sigma) as housekeeping control protein. […]
On the technique in general: Immunoblotting shows a protein as a band on a membrane.

The subject of a further assay is FLT3 with Hsp90. Particulars: cited from earlier work.
Assay [1] has as its system leukemia cells that express either wild type FLT3 or FLT3-ITD mutations. Particulars: cited from earlier work.
Another assay relates to Kasumi-1 cells. Particulars: Kasumi-1 acute myeloid leukemia cell line with c-Kit mutation; cited from earlier work.
The next assay has as its system Pkd1^−/− mice. The experiment in a line: Cyst formation and kidney growth in conditional Pkd1-/- mice (MRI, kidney weight, cystic index, BUN). It counts as in vivo. The method, then: All experiments involving mice were approved by the Institutional Animal Care and Use Committee of Fox Chase Cancer Center. Conditional Pkd1^−/− mice using the Cre-flox regulatory system for targeted inactivation of the Pkd1 gene in vivo were kindly provided by Gregory Germino (National Institute of Diabetes and Digestive and Kidney Diseases). Pkd1fl/fl;Cre/Esr1+ (referred to as Pkd1^−/−) and control mice (Pkd1fl/fl;Cre/Esr1−; referred to as Control) mice were injected intraperitoneally with tamoxifen (250 mg/kg body weight) on postnatal day P37/P38 (+/−1 day) to induce Pkd1 deletion in the test group.
Compound 111 was formulated in 5% dextrose titrated to pH 4, and administered by tail vein injection in anesthetized mice under sterile conditions using a volume of 10 μl/g body weight. Vehicle treated mice were injected with 5% dextrose only. To investigate the activity of compound 111 on early kidney disease, mice were treated with compound 111 for 5 months, starting 2-3 days after Pkd1 deletion. Treatment began with a weekly schedule up to 4 months of age, including one week off in the 3rd month of age, followed by a bi-weekly schedule from 4 to 6 month of age. 24 hours after the 16th injection, blood samples were collected and the mice were sacrificed to collect organs for histopathological and biochemical analysis. To investigate the activity of compound 111 on Late kidney disease, mice were dosed weekly with compound 111 for 10 weeks starting at 4 months of age. 24 hours after the 11th dose (10 weeks of treatment), blood samples were collected and the mice were sacrificed to collect organs for histopathological and biochemical analysis.
To assess the utility of HSP90 inhibition in ADPKD, Pkd1fl/fl;Cre/Esr1+ (referred to as Pkd1^−/−) and control Pkd1fl/fl;Cre/Esr1− (referred to as control) mice were injected with tamoxifen at 5-6 weeks of age to inactivate the Pkd1 gene. HSP90 was inhibited using compound, a resorcinolic triazole that competitively binds the N-terminal ATP pocket of HSP90. In one cohort of mice (designated Early), mice were dosed from 6 weeks-4 months of age, to assess drug effects on disease initiation (FIG. 1). […] (FIGS. 2-3)
In a second cohort (designated Late), mice were dosed from 4-6 months of age, to assess drug effects on mice with Late cysts, in this case using doses of 50 mg/kg and 100 mg/kg to explore dose range (FIGS. 4-6).
Mice were imaged in a vertical bore MR system at a field strength of 7 Tesla, using a Bruker DRX300 spectrometer, Paravision 3.0.2 software, and a single tuned ^1H cylindrical radiofrequency coil. […]
Using NIH ImageJ, an open source image analysis program, kidney and cyst volume were quantified. […]

On to `C=CCNC1=C2C[C@@H](C)C[C@H](OC)[C@H](O)[C@@H](C)/C=C(\C)[C@H](OC(N)=O)[C@@H](OC)/C=C\C=C(/C)C(=O)NC(=CC1=O)C2=O` [Compound 17AAG], for which the “degradation of Her2” value with Her2 was “partial degradation”. Moreover, in the assay on FLT3 with Hsp90, the “association of FLT3 with Hsp90” value was “disrupt the association of FLT3 with Hsp90”. In addition, in assay [1], the “growth of leukemia cells” value is listed as “inhibited”. The apoptosis result with Kasumi-1 cells is given as “induce apoptosis”.
As for `CC(C)c1cc(-c2nnc(C(=O)NCCN3CCOCC3)n2-c2ccc(CN3CCOCC3)cc2)c(O)cc1O` [Compound 111, 5-(2,4-dihydroxy-5-isopropylphenyl)-N-(2-morpholinoethyl)-4-(4-(morpholinomethyl)phenyl)-4H-1,2,4-triazole-3-carboxamide], in the assay with Pkd1^−/− mice (Early cohort, 75 mg/kg, blood drawn at euthanasia), the “blood urea nitrogen (BUN)” value is “trend towards reduction”. The “formation of renal cysts and kidney growth” value with Pkd1^−/− mice (Early cohort, Pkd1−/− mice, 75 mg/kg, tail vein injection, 5 months) was “very significantly reduced; also recorded: inhibited cyst formation, kidney growth”. Also, in the assay on Pkd1^−/− mice (Late cohort, 50 mg/kg and 100 mg/kg, 1×/week for 10 weeks, tail vein injection), the “reduction of cyst volume and kidney growth” value is on record as “significant, dose-dependent effect; also recorded: reduced cystic burden”. In addition, the BUN scores entry in the assay on Pkd1^−/− mice (Late cohort, 100 mg/kg, 10 weeks) is listed as “reduced BUN scores to normal levels”.
